IC50 data for 33 compounds are collected here from patent publication US9656959B2, “Substituted pyridines as sodium channel blockers” (Purdue Pharma L.P., priority 2010, dated 2017).

For orientation: IC50 means the concentration that inhibits the measured activity by half.

For one assay, the target named is human Nav1.7 (Homo sapiens (Human), UniProt Q15858). The assay can be described thus: FLIPR or FLIPR TETRA sodium dye assay with KCl and test article pre-incubation. The format is cell-based. The note with it: read-out: Nav1.7 Activity (μM) FLIPR assay IC50 (μM) ± SEM.
Chain of human Nav1.7 (Q15858 with tags, fused parts or gaps limits assumed): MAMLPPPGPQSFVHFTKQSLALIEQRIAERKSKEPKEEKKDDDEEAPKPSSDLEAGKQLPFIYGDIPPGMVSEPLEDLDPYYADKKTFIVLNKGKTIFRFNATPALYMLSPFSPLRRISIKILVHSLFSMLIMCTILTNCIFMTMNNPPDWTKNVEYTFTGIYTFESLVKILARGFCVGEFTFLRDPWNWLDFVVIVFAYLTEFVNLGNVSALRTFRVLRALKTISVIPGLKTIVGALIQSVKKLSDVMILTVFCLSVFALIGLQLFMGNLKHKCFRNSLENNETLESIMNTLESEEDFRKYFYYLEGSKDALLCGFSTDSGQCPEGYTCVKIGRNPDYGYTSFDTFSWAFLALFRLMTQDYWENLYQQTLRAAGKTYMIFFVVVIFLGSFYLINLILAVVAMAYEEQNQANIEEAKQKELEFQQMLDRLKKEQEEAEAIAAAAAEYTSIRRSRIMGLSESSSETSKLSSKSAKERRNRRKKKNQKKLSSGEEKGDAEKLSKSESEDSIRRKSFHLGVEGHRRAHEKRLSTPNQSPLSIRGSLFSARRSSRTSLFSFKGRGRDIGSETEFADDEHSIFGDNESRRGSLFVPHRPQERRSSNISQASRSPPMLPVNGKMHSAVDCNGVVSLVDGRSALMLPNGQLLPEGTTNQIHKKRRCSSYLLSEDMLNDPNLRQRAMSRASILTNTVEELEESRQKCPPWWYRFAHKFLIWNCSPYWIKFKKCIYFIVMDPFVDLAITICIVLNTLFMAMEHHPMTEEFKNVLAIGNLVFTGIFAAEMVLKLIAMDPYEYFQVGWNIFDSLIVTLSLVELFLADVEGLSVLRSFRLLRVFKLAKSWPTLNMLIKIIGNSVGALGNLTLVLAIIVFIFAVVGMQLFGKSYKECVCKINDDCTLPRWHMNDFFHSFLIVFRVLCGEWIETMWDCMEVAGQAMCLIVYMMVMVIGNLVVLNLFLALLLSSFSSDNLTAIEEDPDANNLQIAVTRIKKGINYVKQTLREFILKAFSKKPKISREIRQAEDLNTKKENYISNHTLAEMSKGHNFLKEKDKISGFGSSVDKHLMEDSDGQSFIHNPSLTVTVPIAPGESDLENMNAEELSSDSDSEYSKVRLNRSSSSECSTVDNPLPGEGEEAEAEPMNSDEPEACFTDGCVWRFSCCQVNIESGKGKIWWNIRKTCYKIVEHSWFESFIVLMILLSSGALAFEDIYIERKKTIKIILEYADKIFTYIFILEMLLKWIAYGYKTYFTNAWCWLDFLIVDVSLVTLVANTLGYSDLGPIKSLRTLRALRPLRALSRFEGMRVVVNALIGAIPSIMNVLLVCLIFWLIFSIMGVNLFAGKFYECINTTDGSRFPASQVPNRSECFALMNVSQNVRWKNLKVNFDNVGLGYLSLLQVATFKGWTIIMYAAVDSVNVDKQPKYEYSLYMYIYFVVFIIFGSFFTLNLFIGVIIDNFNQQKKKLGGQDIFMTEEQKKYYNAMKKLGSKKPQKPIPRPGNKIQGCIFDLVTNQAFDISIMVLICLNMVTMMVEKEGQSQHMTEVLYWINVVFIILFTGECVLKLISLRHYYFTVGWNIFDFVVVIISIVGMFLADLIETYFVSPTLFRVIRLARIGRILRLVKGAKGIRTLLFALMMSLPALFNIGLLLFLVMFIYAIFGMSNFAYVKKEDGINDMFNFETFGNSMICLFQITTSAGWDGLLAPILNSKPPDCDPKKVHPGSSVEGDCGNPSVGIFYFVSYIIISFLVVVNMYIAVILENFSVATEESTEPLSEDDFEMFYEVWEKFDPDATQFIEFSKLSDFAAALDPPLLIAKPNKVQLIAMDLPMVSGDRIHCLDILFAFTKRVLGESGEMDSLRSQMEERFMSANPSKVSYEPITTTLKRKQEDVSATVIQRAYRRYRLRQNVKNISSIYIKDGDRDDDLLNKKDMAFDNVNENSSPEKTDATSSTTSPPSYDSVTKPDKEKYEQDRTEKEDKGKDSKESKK
Turning to `COCCOCC(=O)N[C@@H](CC(C)C)C(=O)Nc1cccc(-c2ccc(Oc3ccc(F)cc3)cc2)n1` [Compound 9, (S)-N-(6-(4-(4-fluorophenoxy)phenyl)pyridin-2-yl)-2-(2-(2-methoxyethoxy)acetamido)-4-methylpentanamide], the IC50 was 0.091 ± 0.02 µM.

On to `CC(C)C[C@H](NC(=O)c1cccnc1)C(=O)Nc1cccc(-c2ccc(Oc3ccc(F)cc3)cc2)n1` [Compound 10, (S)-N-(1-((6-(4-(4-fluorophenoxy)phenyl)pyridin-2-yl)amino)-4-methyl-1-oxopentan-2-yl)nicotinamide], for which the IC50 is 0.091 ± 0.03 µM.

Turning to `CC(C)C[C@H](NC(=O)NC(C)C)C(=O)Nc1cccc(-c2ccc(Oc3ccc(F)cc3)cc2)n1` [Compound 11, (S)-N-(6-(4-(4-fluorophenoxy)phenyl)pyridin-2-yl)-2-(3-isopropylureido)-4-methylpentanamide], the IC50 stood at 0.086 ± 0.02 µM.

With `CS(=O)(=O)Nc1cc(Cl)cc(-c2ccc(Oc3ccc(F)cc3)cc2)n1` [Compound 15, N-(4-chloro-6-(4-(4-fluorophenoxy)phenyl)pyridin-2-yl)methanesulfonamide], the IC50 was found to be 0.26 ± 0.07 µM.

For `CS(=O)(=O)N(C[C@H](O)CO)c1cc(Cl)cc(-c2ccc(Oc3ccc(F)cc3)cc2)n1` [Compound 17, (S)-N-(4-chloro-6-(4-(4-fluorophenoxy)phenyl)pyridin-2-yl)-N-(2,3-dihydroxypropyl)methanesulfonamide], the IC50 amounted to 0.094 ± 0.03 µM.

Take `NS(=O)(=O)Nc1cc(Cl)cc(-c2ccc(Oc3ccc(F)cc3)cc2)n1` [Compound 18, N-(4-chloro-6-(4-(4-fluorophenoxy)phenyl)pyridin-2-yl)sulfamide]: the IC50 came to 1.5 ± 0.3 µM.

With `CS(=O)(=O)Nc1cc([C@H](O)CO)cc(-c2ccc(Oc3ccc(F)cc3)cc2)n1` [Compound 24, (S)-N-(4-(1,2-dihydroxyethyl)-6-(4-(4-fluorophenoxy)phenyl)pyridin-2-yl)methanesulfonamide], the IC50 was 2.9 ± 0.8 µM.

`CS(=O)(=O)Nc1cccc(-c2ccc(Oc3ccc(F)cc3)cc2)n1` [Compound 27, N-(6-(4-(4-fluorophenoxy)phenyl)pyridin-2-yl)methanesulfonamide]: the 50% inhibitory concentration (IC50) came to 0.34 ± 0.05 µM.

Consider `O=S(=O)(Nc1cccc(-c2ccc(Oc3ccc(F)cc3)cc2)n1)C1CC1` [Compound 28, N-(6-(4-(4-fluorophenoxy)phenyl)pyridin-2-yl)cyclopropane Sulfonamide], for which the concentration for half-maximal inhibition (IC50) was found to be 0.22 ± 0.07 µM.

As to `Cn1cnc(S(=O)(=O)Nc2cccc(-c3ccc(Oc4ccc(F)cc4)cc3)n2)c1` [Compound 29, N-(6-(4-(4-fluorophenoxy)phenyl)pyridin-2-yl)-1-methyl-1H-imidazole-4-sulfonamide], the IC50 was found to be 0.32 ± 0.05 µM.

For `N[C@@H](Cc1c[nH]cn1)C(=O)Nc1cccc(-c2ccc(Oc3ccc(F)cc3)cc2)n1` [Compound 31, (S)-2-amino-N-(6-(4-(4-fluorophenoxy)phenyl)pyridin-2-yl)-3-(1H-imidazol-4-yl)propanamide], the IC50 is 0.18 ± 0.02 µM.

On to `CC(=O)N1CCC(C(=O)N[C@@H](Cc2c[nH]cn2)C(=O)Nc2cccc(-c3ccc(Oc4ccc(F)cc4)cc3)n2)CC1` [Compound 34, (S)-1-acetyl-N-(1-((6-(4-(4-fluorophenoxy)phenyl)pyridin-2-yl)amino)-3-(1H-imidazol-4-yl)-1-oxopropan-2-yl)piperidine-4-carboxamide], for which the IC50 came out at 0.58 ± 0.05 µM.

For `COCC(=O)N[C@@H](Cc1c[nH]cn1)C(=O)Nc1cccc(-c2ccc(Oc3ccc(F)cc3)cc2)n1` [Compound 35, (S)-N-(6-(4-(4-fluorophenoxy)phenyl)pyridin-2-yl)-3-(1H-imidazol-4-yl)-2-(2-methoxyacetamido)propanamide], the IC50 was 0.13 ± 0.02 µM.

As to `O=C(CO)N[C@@H](Cc1c[nH]cn1)C(=O)Nc1cccc(-c2ccc(Oc3ccc(F)cc3)cc2)n1` [Compound 36, (S)-N-(6-(4-(4-fluorophenoxy)phenyl)pyridin-2-yl)-2-(2-hydroxyacetamido)-3-(1H-imidazol-4-yl)propanamide], the IC50 worked out at 0.14 ± 0.01 µM.

For `CC(C)(O)C(=O)N[C@@H](Cc1c[nH]cn1)C(=O)Nc1cccc(-c2ccc(Oc3ccc(F)cc3)cc2)n1` [Compound 37, (S)-N-(6-(4-(4-fluorophenoxy)phenyl)pyridin-2-yl)-2-(2-hydroxy-2-methylpropanamido)-3-(1H-imidazol-4-yl)propanamide], the IC50 came to 0.12 ± 0.03 µM.

For the compound `CC(C)(C)OC(=O)N[C@@H](CC(=O)Nc1cccc(-c2ccc(Oc3ccc(F)cc3)cc2)n1)C(N)=O` [Compound 40, (S)-tert-butyl (1-amino-4-((6-(4-(4-fluorophenoxy)phenyl)pyridin-2-yl)amino)-1,4-dioxobutan-2-yl)carbamate], the 50% inhibitory concentration (IC50) came to 0.13 ± 0.03 µM.

Consider `CC(C)(C)OC(=O)N[C@@H](CC(N)=O)C(=O)Nc1cccc(-c2ccc(Oc3ccc(F)cc3)cc2)n1` [Compound 41, (S)-tert-butyl (4-amino-1-((6-(4-(4-fluorophenoxy)phenyl)pyridin-2-yl)amino)-1,4-dioxobutan-2-yl)carbamate], for which the IC50 stood at 0.066 ± 0.008 µM.

As for `CC(C)C[C@H](NC(=O)C1CC1)C(=O)Nc1cc([C@H](O)CO)cc(-c2ccc(Oc3ccc(F)cc3)cc2)n1` [Compound 44, N-((S)-1-((4-((S)-1,2-dihydroxyethyl)-6-(4-(4-fluorophenoxy)phenyl)pyridin-2-yl)amino)-4-methyl-1-oxopentan-2-yl)cyclopropanecarboxamide], the IC50 is 0.059 ± 0.12 µM.

As for `CC(C)C[C@H](NC(=O)c1ccccn1)C(=O)Nc1cc([C@H](O)CO)cc(-c2ccc(Oc3ccc(F)cc3)cc2)n1` [Compound 45, N-((S)-1-((4-((S)-1,2-dihydroxyethyl)-6-(4-(4-fluorophenoxy)phenyl)pyridin-2-yl)amino)-4-methyl-1-oxopentan-2-yl)picolinamide], the IC50 amounted to 0.3 ± 0.07 µM.

Consider `O=C(N[C@@H](CO)C(=O)Nc1cccc(-c2ccc(Oc3ccc(F)cc3)cc2)n1)c1ccccn1` [Compound 54, Pyridine-2-carboxylic acid ((S)-1-{6-[4-(4-fluoro-phenoxy)-phenyl]-pyridin-2-ylcarbamoyl}-2-hydroxy-ethyl)-amide], for which the IC50 was found to be 0.07 ± 0.02 µM.

`O=C(N[C@@H](CO)C(=O)Nc1cccc(-c2ccc(Oc3ccc(F)cc3)cc2)n1)C1CC1` [Compound 55, Cyclopropanecarboxylic acid ((S)-1-{6-[4-(4-fluoro-phenoxy)-phenyl]-pyridin-2-ylcarbamoyl}-2-hydroxy-ethyl)-amide]: the IC50 was found to be 0.06 ± 0.006 µM.

Turning to `O=C(N[C@@H](CO)C(=O)Nc1cccc(-c2ccc(Oc3ccc(F)cc3)cc2)n1)c1ccncc1` [Compound 57, N-((S)-1-{6-[4-(4-Fluoro-phenoxy)-phenyl]-pyridin-2-ylcarbamoyl}-2-hydroxy-ethyl)-isonicotinamide], the IC50 was determined as 0.16 ± 0.03 µM.

As to `Cc1cc(C(=O)N[C@@H](CO)C(=O)Nc2cccc(-c3ccc(Oc4ccc(F)cc4)cc3)n2)no1` [Compound 58, 5-Methyl-isoxazole-3-carboxylic acid ((S)-1-{6-[4-(4-fluoro-phenoxy)-phenyl]-pyridin-2-ylcarbamoyl}-2-hydroxy-ethyl)-amide], the 50% inhibitory concentration (IC50) turned out to be 0.11 ± 0.04 µM.

With `CC(C)(C)OC(=O)N[C@@H](CO)C(=O)Nc1cccc(-c2ccc(Oc3ccc(F)cc3)cc2)n1` [Compound 59, ((S)-1-{6-[4-(4-Fluoro-phenoxy)-phenyl]-pyridin-2-ylcarbamoyl}-2-hydroxy-ethyl)-carbamic acid tert-butyl ester], the IC50 came to 0.31 ± 0.07 µM.

On to `NC(=O)N[C@@H](CO)C(=O)Nc1cccc(-c2ccc(Oc3ccc(F)cc3)cc2)n1` [Compound 61, (S)-N-{6-[4-(4-Fluoro-phenoxy)-phenyl]-pyridin-2-yl}-3-hydroxy-2-ureido-propionamide], for which the IC50 is 0.12 ± 0.05 µM.

In the case of `O=C1NCCN1CCNc1cc(Cl)cc(-c2ccc(Oc3ccc(F)cc3)cc2)n1` [Compound 64, 1-(2-((4-chloro-6-(4-(4-fluorophenoxy)phenyl)pyridin-2-yl)amino)ethyl)imidazolidin-2-one], the IC50 was 0.12 ± 0.01 µM.

With `O=C(Nc1cccc(-c2ccc(Oc3ccc(C(F)(F)F)cc3)cc2)n1)C(O)CO` (stereo not drawn) [Compound 76, 2,3-dihydroxy-N-(6-(4-(4-(trifluoromethyl)phenoxy)phenyl)pyridin-2-yl)propanamide], the IC50 was > 20 µM.

With `CCC(=O)N[C@@H](Cc1cn(C)cn1)C(=O)Nc1cccc(-c2ccc(Oc3ccc(F)cc3)cc2)n1` [Compound 81, (S)-N-(6-(4-(4-fluorophenoxy)phenyl)pyridin-2-yl)-3-(1-methyl-1H-imidazol-4-yl)-2-propionamidopropanamide], the IC50 turned out to be 0.064 ± 0.01 µM.

As for `CC(C)C(=O)N[C@@H](Cc1cn(C)cn1)C(=O)Nc1cccc(-c2ccc(Oc3ccc(F)cc3)cc2)n1` [Compound 82, (S)-N-(6-(4-(4-fluorophenoxy)phenyl)pyridin-2-yl)-2-isobutyramido-3-(1-methyl-1H-imidazol-4-yl)propanamide], the IC50 turned out to be 0.046 ± 0.005 µM.

Turning to `Cn1cnc(C[C@H](NC(=O)C(C)(C)C)C(=O)Nc2cccc(-c3ccc(Oc4ccc(F)cc4)cc3)n2)c1` [Compound 83, (S)-N-(6-(4-(4-fluorophenoxy)phenyl)pyridin-2-yl)-3-(1-methyl-1H-imidazol-4-yl)-2-pivalamidopropanamide], the IC50 was 0.02 ± 0.002 µM.

Regarding `CC(=O)N[C@@H](Cc1cn(C)cn1)C(=O)Nc1cc(-c2ccc(Oc3ccc(F)cc3)cc2)ccn1` [Compound 84, (S)-2-acetamido-N-(4-(4-(4-fluorophenoxy)phenyl)pyridin-2-yl)-3-(1-methyl-1H-imidazol-4-yl)propanamide], the IC50 stood at 0.29 ± 0.025 µM.

The assay is the same for the next values; noted with them: recombinant Nav1.7/HEK293 cells; CoroNa Green sodium dye; veratridine + scorpion venom agonists; ± SEM.
As for `Cn1cnc(S(=O)(=O)Nc2cc([C@H](O)CO)cc(-c3ccc(Oc4ccc(F)cc4)cc3)n2)c1` [Compound 26, (S)-N-(4-(1,2-dihydroxyethyl)-6-(4-(4-fluorophenoxy)phenyl)pyridin-2-yl)-1-methyl-1H-imidazole-4-sulfonamide], the IC50 was > 20 µM.

For the compound `Nc1nc(O)cc(C(=O)Nc2cccc(-c3ccc(Oc4ccc(F)cc4)cc3)n2)n1` [Compound 65, 2-amino-N-(6-(4-(4-fluorophenoxy)phenyl)pyridin-2-yl)-6-hydroxypyrimidine-4-carboxamide], the IC50 was > 20 µM.
